Values of other authors, collected in patent publication US9682037B2, “Non-mucoadhesive film dosage forms” (APR APPLIED PHARMA RESEARCH S.A., priority 2006, dated 2017).
Where a name gives a salt, the structure may show the parent alone. Read-outs that look alike come from different tables or passages of the source.

What was measured:
[1] = oral
[2] = oral 5 mg once daily for 10 days, normal healthy volunteers

## CNC[C@H](O)c1cccc(O)c1 [phenylephrine]
[1]
  absolute bioavailability when ingested orally: approximately 40%
  time to peak plasma concentrations: 1 to 2 h

## CCN(C)C(=O)Oc1cccc([C@H](C)N(C)C)c1 [Rivastigmine Tartrate]
3.0 mg dose
  Absolute Bioavailability: Absolute Bioavailability = ca. 36% for 3.0 mg
Doubling dose from 3 to 6 mg BID
  increase in AUC on doubling dose: Doubling dose from 3 to 6 mg BID → three fold
fasted
  Tmax: Tmax = 1.0 hours (fasted state)
Result in words
  Linearity / dose proportionality of pharmacokinetics: Linear pharmokinetics up to 3 mg BID
With food
  Administration with food delays absorption (Tmax) by: 1.5 h
  Food decreases/lowers Cmax by: ~30%

## COc1ccc2c3c1O[C@H]1C[C@@H](O)C=C[C@@]31CCN(C)C2 [Galantamine HBr]
fasted
  Tmax: Tmax = ca. 60 minutes (fasted)
In vivo
  Absolute Bioavailability: Absolute bioavailability −= ca. 90%
With food
  Administration with food delays absorption (Tmax) by: 1.5 h

## Cc1nc2n(c(=O)c1CCN1CCC(c3noc4cc(F)ccc34)CC1)CCCC2 [Risperidone]
In vivo
  Absolute Bioavailability: Absolute Bioavailability = ca. 70% (CV = 25%)
  Tmax: Tmax = 1.0 hour hours

## CCCc1nn(C)c2c(=O)[nH]c(-c3cc(S(=O)(=O)N4CCN(C)CC4)ccc3OCC)nc12 [Sildenafil Citrate]
fasted
  Tmax: 0.5 to 2 h
fasted, 100 mg dose
  Cmax: Cmax = ca. 450 ng/ml.(fasted) (100 mg dose)
In vivo
  Absolute Bioavailability: Absolute bioavailability = ca. 40%

## CNS(=O)(=O)Cc1ccc2[nH]cc(CCN(C)C)c2c1 [Sumatriptan Succinate, 3-[2-(dimethylamino)ethyl]-N-methyl-indole-5-methanesulfonamide]
25 mg
  Cmax: 18 ng/mL
  Cmax range: 7 to 47 ng/mL
100 mg
  Cmax: 51 ng/mL
  Cmax range: (range 28-100 ng/ml) (100 mg)
100 mg tablets
  High fat meal: AUC increased by: 12%
  High fat meal: Cmax increased by: 15%
During migraine attack
  Tmax: ~2.5 h
In vivo
  Absolute Bioavailability: Absolute bioavailability = ca. 15%
  Cmax during a migraine attack versus when migraine free: Cmax is same during a migraine attack and when
Result in words
  Linearity / dose proportionality of pharmacokinetics: Single dose → dose proportionality in extent of
When migraine free
  Tmax: ~2.0 h

## Cc1nnc2n1-c1ccc(Cl)cc1C(c1ccccc1)=NC2 [Alprazolam]
In vivo
  Tmax: Tmax = 1-2 hours
Over 0.3-3.0 mg dose range
  Cmax: Cmax = 8.0-37 ng/ml over 0.3-3.0 mg dose range
Result in words
  Linearity / dose proportionality of pharmacokinetics: Plasma levels proportionate to dose given

## CCCc1nc(C)c2c(=O)[nH]c(-c3cc(S(=O)(=O)N4CCN(CC)CC4)ccc3OCC)nn12 [Vardenafil HCl]
fasted
  Tmax: 0.5 to 2 h
  Tmax median: 1 h
fasted, 20 mg dose
  Cmax: 10 to 25 ng/mL
  Cmax median: ~18 ng/mL
High fat meal
  Administration with high fat meal lowers Cmax by: Cmax by ca. 18-50%
In vivo
  Absolute Bioavailability: Absolute bioavailability = ca. 15%

## Cc1nccn1CC1CCc2c(c3ccccc3n2C)C1=O (racemic) [Ondansetron Base, (±) 1,2,3,9 tetrahydro-9-methyl-3-[(2-methyl-1H-imidazol-1-yl)methyl]-4H-carbazol-4-one]
8 mg tablet
  Bioavailability: (56% for 8 mg tablet)
Healthy subjects
  Bioavailability in Healthy Subjects: Bioavailability in Healthy Subjects = ca. 45-75%
In vivo
  Tmax: Tmax = 1.5-2.5 Hours hours
Result in words
  Effect of food on absorption: Bioavailability slightly enhanced by food
  Linearity / dose proportionality of pharmacokinetics: Plasma concentrations are not dose

## Cc1cc2c(s1)Nc1ccccc1N=C2N1CCN(C)CC1 [Olanzapine, 2-methyl-4-(4-methyl-1-piperazinyl)-10H-thieno[2,3-b][1,5]benzodiazepine]
Administration once daily
  steady state conc. relative to conc. after single doses: ca. twice the conc. after single doses
In vivo
  Absolute Bioavailability: Absolute Bioavailability = ca. 60%
  Tmax: Tmax = 6.0 hours
Result in words
  Linearity / dose proportionality of pharmacokinetics: Linear pharmacokinetics over clinical dosing

## O=C1Nc2ccc(Cl)cc2C(c2ccccc2Cl)=NC1O (centres unmarked) [Lorazepam]
2 mg
  Cmax: 20 ng/mL
In vivo
  Absolute Bioavailability: Absolute bioavailability = ca. 90%
  Tmax: Tmax = ca. 120 minutes
Result in words
  Linearity / dose proportionality of pharmacokinetics: dose proportionate

## Clc1ccc2c(c1)CCc1cccnc1C2=C1CCNCC1 [Desloratadine, 8-chloro, 6,11-dihydro-11-(4-piperdinylidene)-5H-benzo[5,6]cyclohepta[1,2-b]pyridine]
[2]
  AUC: AUC = 56.9 ng hr/ml*
  Tmax: Tmax = 3.0 hours*

## O=C1CN=C(c2ccccc2Cl)c2cc([N+](=O)[O-])ccc2N1 [Clonazepam]
In vivo
  Absolute Bioavailability: Absolute bioavailability = ca. 90%
  Tmax: Tmax = 1-4 hours
